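Cells were grown in 96-well plates and exposed to each compound for 48 hours at five concentrations; endpoints were interpolated linearly between bracketing concentrations, or set to the highest concentration if not reached. GI50 = concentration required for 50% inhibition of growth. TGI marks complete inhibition of growth.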
Legend:
Test in all cases: NCI-60 cell line screen, 48 h
[1] = system: A549 NSCLC
[2] = system: LOX IMVI melanoma
[3] = system: NCI-H226 lung
[4] = system: UACC-257 melanoma
[5] = system: TK-10 renal
[6] = system: UO-31 renal
[7] = system: KM12 colon
[8] = system: EKVX NSCLC
[9] = system: HOP-62 NSCLC

Row | Structure (SMILES) | TGI [1] | TGI [2] | TGI [3] | TGI [4] | GI50 [5] | TGI [5] | TGI [6] | TGI [7] | TGI [8] | TGI [9] | GI50 [1] | GI50 [2] | GI50 [4] | GI50 [6] | GI50 [7] | GI50 [8] | GI50 [9] | GI50 [3]
1 | COc1cc(CNc2nc3c(N)cc(C(F)(F)F)cc3nc2-c2ccccc2)cc(OC)c1OC | > 100 µM | > 100 µM | > 100 µM | > 100 µM | > 100 µM | > 100 µM | 85.5 µM | > 100 µM | 25.6 µM | > 100 µM | – | – | – | – | – | – | – | –
2 | Oc1c(C(Nc2ccccc2Br)c2ccccc2)ccc2cccnc12 (stereo not drawn) | > 100 µM | 13.6 µM | – | 8.48 µM | 3.34 µM | 46.3 µM | 45.8 µM | > 100 µM | > 100 µM | 19.7 µM | 2.46 µM | 1.91 µM | 1.88 µM | 1.32 µM | 2.47 µM | 2.48 µM | 2.28 µM | –
3 | CC(C)C1CO[C@]2(C)CCC(=O)N12 (stereo partly drawn) | > 100 µM | – | > 100 µM | > 100 µM | – | > 100 µM | > 100 µM | > 100 µM | > 100 µM | > 100 µM | – | – | – | – | – | – | – | –
4 | Cc1cc2c(c(C(N)=O)c1C)-c1cccc(F)c1C2=O | > 100 µM | > 100 µM | – | > 100 µM | – | > 100 µM | > 100 µM | > 100 µM | > 100 µM | > 100 µM | – | – | – | – | – | – | – | –
5 | O=c1cc(-c2ccccn2)[nH]c2cccc(F)c12 | > 100 µM | > 100 µM | > 100 µM | > 100 µM | – | > 100 µM | > 100 µM | > 100 µM | > 100 µM | > 100 µM | – | – | – | – | – | – | – | –
6 | Cc1c(C(=O)C/C(=N/NC(=O)c2ccccc2)C(=O)Nc2ccc(Cl)cc2)[n+](=O)c2ccccc2n1[O-] | > 100 µM | > 100 µM | > 100 µM | > 100 µM | – | > 100 µM | – | > 100 µM | – | > 100 µM | – | – | – | – | – | – | – | –
7 | CCCn1c(SCCSc2c3ccccc3c(-c3nc(F)nc(F)n3)n2CCC)c2ccccc2c1-c1nc(F)nc(F)n1 | > 100 µM | – | – | > 100 µM | – | > 100 µM | > 100 µM | > 100 µM | > 100 µM | > 100 µM | – | – | – | – | – | – | – | –
8 | N#C/C(=C1\SCC(=O)N1c1ccccc1)c1nc2ccccc2[nH]1 | > 100 µM | > 100 µM | > 100 µM | > 100 µM | – | > 100 µM | > 100 µM | – | > 100 µM | > 100 µM | – | – | – | – | – | – | – | –
9 | O=C1C2C(C(=O)N1c1ccccc1)C1c3ccccc3C2C2C(=O)N(c3ccccc3)C(=O)C21 (stereo not drawn) | > 100 µM | > 100 µM | > 100 µM | > 100 µM | – | > 100 µM | > 100 µM | > 100 µM | > 100 µM | – | – | – | – | – | – | – | – | –
10 | CCOC(=O)NC(=O)c1cn(CCN2CCN(C(=O)CNC(=O)CNC(=O)Cn3cc(C(=O)NC(=O)OCC)c(=O)[nH]c3=O)CC2)c(=O)[nH]c1=O | > 100 µM | > 100 µM | – | > 100 µM | – | > 100 µM | > 100 µM | > 100 µM | – | > 100 µM | – | – | – | – | – | – | – | –
11 | COC1C(OC(=O)c2ccc(C)[nH]2)C(O)C(Oc2ccc3c(O)c(NC(=O)c4c[nH]c(C(=O)Nc5c(O)c6ccc(OC7OC(C)(C)C(OC)C(OC(=O)c8ccc(C)[nH]8)C7O)c(C)c6oc5=O)c4C)c(=O)oc3c2C)OC1(C)C (stereo not drawn) | 61.3 µM | 9.4 µM | 3.84 µM | 33.5 µM | – | 37.3 µM | 2.94 µM | 8.89 µM | 19.2 µM | – | – | – | – | – | – | – | – | –
12 | C#CC1(O)CCC2C3CCc4cc(Oc5nc(F)nc(-c6c7ccccc7c7n6CCS7)n5)ccc4C3CC[C@@]21C (stereo partly drawn) | > 100 µM | – | 92.5 µM | > 100 µM | – | 71.3 µM | 78.3 µM | 28.3 µM | – | 36.1 µM | – | – | – | – | – | – | – | –
13 | [N-]=[N+]=NC(c1cn(C2CC(O)C(CO)O2)c(=O)[nH]c1=O)C(Cl)Br (stereo not drawn) | > 100 µM | > 100 µM | > 100 µM | – | – | > 100 µM | > 100 µM | > 100 µM | > 100 µM | – | – | – | – | – | – | – | – | –
14 | COc1cc2c(cc1OC)C(C(=O)O)C(c1ccccc1)N(C)C2=O (stereo not drawn) | > 100 µM | – | – | > 100 µM | – | > 100 µM | > 100 µM | > 100 µM | > 100 µM | > 100 µM | – | – | – | – | – | – | – | –
15 | C=CCn1c(=S)sc2c(C(=O)OCC)c3c(C)cc(C)cn3c2c1=O | > 100 µM | > 100 µM | > 100 µM | > 100 µM | – | > 100 µM | > 100 µM | – | > 100 µM | > 100 µM | – | – | – | – | – | – | – | –
16 | CCCn1c2c(c3c(O)cccc31)C(=O)c1ccccc1-2 | > 100 µM | > 100 µM | > 100 µM | 96.5 µM | 16.4 µM | > 100 µM | > 100 µM | – | > 100 µM | 27.6 µM | 21.8 µM | 31.6 µM | 22.9 µM | 22.8 µM | – | 15.9 µM | 8.24 µM | 28.3 µM
17 | C=CC(=O)N1C/C(=C\c2ccc(Cl)c(Cl)c2)C(=O)/C(=C/c2ccc(Cl)c(Cl)c2)C1 | – | 0.842 µM | 2.73 µM | 1.57 µM | – | 2.57 µM | 0.528 µM | 0.642 µM | – | 0.607 µM | – | – | – | – | – | – | – | –
